Legend:
Test in all cases: relative viability (nuclei count vs DMSO), 5 days (fraction); higher = more cells survive
[1] = compound: O=C(/C=C/c1cccnc1)NCCCCC1CCN(C(=O)c2ccccc2)CC1 [Daporinad] + CC1(C)CCC(c2ccc(Cl)cc2)=C(CN2CCN(c3ccc(C(=O)NS(=O)(=O)c4ccc(N[C@H](CCN5CCOCC5)CSc5ccccc5)c(S(=O)(=O)C(F)(F)F)c4)cc3)CC2)C1 [Navitoclax] (partner 0.5 µM)
Procedure, shortened: (§1)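 Lung cancer cell lines in 1536-well plates were dosed by pin tool the day after seeding, either with one drug alone or with a fixed anchor-drug dose plus five library-drug doses (not always all listed) in √10 steps. After 5 days, cells were fixed and their nuclei stained in one step (final 0.05% Triton X-100, 1% formaldehyde, 1 ug/ml Hoechst), then counted on 4× images. Relative viability is the nuclei count in treated wells divided by that in vehicle wells. Values are medians of duplicate plates.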

[2] = compound: O=C(/C=C/c1cccnc1)NCCCCC1CCN(C(=O)c2ccccc2)CC1 [Daporinad] + C[C@@H](Oc1cc(-c2cnn(C3CCNCC3)c2)cnc1N)c1c(Cl)ccc(F)c1Cl [Crizotinib] (partner 1 µM)
Procedure, shortened: as §1

[3] = compound: O=C(/C=C/c1cccnc1)NCCCCC1CCN(C(=O)c2ccccc2)CC1 [Daporinad] + Nc1nc2[nH]cc(CCc3ccc(C(=O)N[C@@H](CCC(=O)O)C(=O)O)cc3)c2c(=O)[nH]1 [Pemetrexed] (partner 0.2 µM)
Procedure, shortened: as §1

[4] = compound: COc1cc(Nc2ncc(F)c(Nc3ccc4c(n3)NC(=O)C(C)(C)O4)n2)cc(OC)c1OC [R406] + Cc1cc(Nc2cc(N3CCN(C)CC3)nc(Sc3ccc(NC(=O)C4CC4)cc3)n2)n[nH]1 [Tozasertib] (partner 0.1 µM)
Procedure, shortened: as §1

| Cell Line | relative viability ([1]; first compound 0.0005 µM) | relative viability ([1]; first compound 0.001581 µM) | relative viability ([1]; first compound 0.005 µM) | relative viability ([1]; first compound 0.01581 µM) | relative viability ([2]; first compound 0.0005 µM) | relative viability ([2]; first compound 0.001581 µM) | relative viability ([2]; first compound 0.005 µM) | relative viability ([2]; first compound 0.01581 µM) | relative viability ([3]; first compound 0.0005 µM) | relative viability ([3]; first compound 0.001581 µM) | relative viability ([3]; first compound 0.005 µM) | relative viability ([3]; first compound 0.01581 µM) | relative viability ([4]; first compound 0.08 µM) | relative viability ([4]; first compound 0.253 µM) | relative viability ([4]; first compound 0.8 µM) | relative viability ([4]; first compound 2.53 µM) | relative viability ([4]; first compound 8 µM) |
| --- | --- | --- | --- | --- | --- | --- | --- | --- | --- | --- | --- | --- | --- | --- | --- | --- | --- |
| BEN | 0.074 | 0.147 | 0.0521 | 0.083 | 0.849 | 0.879 | 0.91 | 1.1 | 0.726 | 0.792 | 0.953 | 0.935 | 0.522 | 0.478 | 0.499 | 0.569 | 0.543 |
| NCI-H1666 | 0.957 | 1.05 | 0.861 | 0.796 | 1.25 | 1.06 | 1.03 | 0.97 | 0.902 | 0.839 | 0.862 | 0.806 | 0.584 | 0.725 | 0.582 | 0.633 | 0.418 |
| LC-2-ad | 0.43 | 0.544 | 0.553 | 0.393 | 0.501 | 0.513 | 0.491 | 0.46 | 0.263 | 0.27 | 0.285 | 0.256 | 0.509 | 0.482 | 0.368 | 0.422 | 0.351 |
| SW 1573 | 0.897 | 0.991 | 0.755 | 0.457 | 0.834 | 0.831 | 0.728 | 0.479 | 0.798 | 0.74 | 0.7 | 0.461 | 0.179 | 0.233 | 0.22 | 0.175 | 0.0962 |
| ChaGo-K-1 | 1.02 | 0.58 | 0.845 | 0.492 | 1.15 | 1.18 | 0.896 | 0.379 | 0.255 | 0.248 | 0.248 | 0.239 | 0.224 | 0.203 | 0.251 | 0.218 | 0.164 |
| COR-L 105 | 0.777 | 0.883 | 0.722 | 0.618 | 0.763 | 0.722 | 0.723 | 0.798 | 1.21 | 1 | 1.18 | 1.02 | 0.344 | 0.325 | 0.439 | 0.237 | 0.399 |
| NCI-H1975 | 1.28 | 1.18 | 1.06 | 1.06 | 0.996 | 0.899 | 1.12 | 0.881 | 0.3 | 0.313 | 0.31 | 0.256 | 0.75 | 0.918 | 0.785 | 0.189 | 0.109 |
| NCI-H1993 | 0.877 | 0.753 | 0.982 | 1.16 | 0.954 | 0.941 | 1.01 | 1.08 | 0.54 | 0.561 | 0.644 | 0.567 | 0.597 | 0.536 | 0.605 | 0.493 | 0.432 |
| SK-LU-1 | 0.901 | 0.646 | 0.672 | 1.1 | 0.942 | 0.958 | 1.18 | 0.892 | 1.04 | 0.998 | 1.09 | 0.941 | 0.301 | 0.318 | 0.363 | 0.256 | 0.106 |
| NCI-H23 | 0.83 | 0.637 | 0.658 | 0.447 | 0.744 | 0.667 | 0.678 | 0.398 | 0.797 | 0.562 | 0.767 | 0.31 | 0.35 | 0.394 | 0.511 | – | 0.148 |
| HCC-366 | 0.993 | 1.02 | 1.17 | 1.06 | 0.696 | 0.628 | 0.864 | 0.634 | 0.187 | – | 0.152 | 0.104 | 0.101 | 0.0718 | 0.133 | 0.0575 | 0.0313 |
| EMC-BAC-2 | 1.16 | 1.16 | 1.01 | 0.318 | 0.743 | 0.763 | 0.527 | 0.247 | 0.428 | 0.482 | 0.421 | 0.388 | 0.311 | 0.286 | 0.305 | 0.279 | 0.246 |
| NCI-H2405 | 0.948 | 0.962 | 0.684 | 0.321 | 0.731 | 0.92 | 0.918 | 0.511 | 1.17 | 1.14 | 1.03 | 0.413 | 0.76 | 0.845 | 0.82 | 0.804 | 0.542 |
| NCI-H1944 | 1.08 | 1.05 | 0.981 | 1.09 | 1.16 | 1.13 | 1.24 | 1.18 | 0.607 | 0.716 | 0.706 | 0.577 | 0.252 | 0.272 | 0.241 | 0.228 | 0.181 |
| EPLC-272H | 1.22 | 1.47 | 1.28 | 1.38 | 0.884 | 1.03 | 1.01 | 1.11 | 0.327 | 0.339 | 0.312 | 0.413 | 0.206 | 0.242 | 0.403 | 0.177 | 0.111 |
| NCI-H1915 | 0.805 | 0.739 | 0.765 | 0.809 | 0.911 | 0.933 | 0.982 | 0.915 | 0.474 | 0.505 | 0.499 | 0.174 | 0.459 | 0.474 | 0.521 | – | 0.463 |
| NCI-H647 | 1.03 | 1.27 | 1.25 | 1.14 | 1.27 | 0.974 | 1.43 | 1.11 | 0.193 | 0.191 | 0.173 | 0.21 | 0.261 | 0.327 | 0.26 | 0.21 | 0.173 |
| NCI-H322M | 1.25 | 1.43 | 1.25 | 0.995 | 0.847 | 1.03 | 0.985 | 0.592 | 0.638 | 0.634 | 0.635 | 0.46 | 0.496 | 0.465 | 0.489 | 0.343 | 0.283 |
| NCI-H2228 | 1.05 | 1.1 | 1.09 | 0.945 | 0.505 | 0.548 | 0.625 | 0.636 | 0.342 | 0.307 | 0.304 | 0.406 | 0.27 | 0.31 | 0.253 | 0.278 | 0.066 |
